# Test system: K86415-001-R-J1-PDC complex spheroids, viability
# Assay: Anticancer human tumor K86415-001-R-J1-PDC patient-derived lung adenocarcinoma cell line growth inhibition [RAS]
# Details: second compound 0.01 µM; first compound 0.316 µM; stronger effect = lower value
# Procedure, shortened: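 Agents were tested in combination matrices in half-log decrements from a top concentration at or near clinical Cmax (10 microM if undetermined). Targets were multi-cell spheroids of tumour lines plus HUVEC and MSC stromal cells.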
# 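Note: spheroids exposed to agents for seven days before readout.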
row,Compound,"viability, T/C"
1,C[C@@H](NC(=O)c1ncnc(N)c1Cl)c1ncc(C(=O)Nc2cc(C(F)(F)F)c(Cl)cn2)s1 + C=CC(=O)N1CCN(c2nc(OCC3CCCN3C)nc3c(F)c(-c4nc(N)cc(C)c4C(F)(F)F)c(Cl)cc23)C(C)C1,14.2%
2,O=C(c1ccc(F)c(F)c1Nc1ccc(I)cc1F)N1CC(O)([C@@H]2CCCCN2)C1 + C=CC(=O)N1CCN(c2nc(OCC3CCCN3C)nc3c(F)c(-c4nc(N)cc(C)c4C(F)(F)F)c(Cl)cc23)C(C)C1,5.24%

# Same assay, conditions: second compound 0.01 µM; first compound 1 µM; stronger effect = lower value
row,Compound,"viability, T/C"
1,CC(C)NCC(C(=O)N1CCN(c2ncnc3c2C(C)CC3O)CC1)c1ccc(Cl)cc1 (configuration not stated) + C=CC(=O)N1CCN(c2nc(OCC3CCCN3C)nc3c(F)c(-c4nc(N)cc(C)c4C(F)(F)F)c(Cl)cc23)C(C)C1,7.26%
2,CC(Nc1ccc2c(c1)OCCn1cc(N3C(=O)OCC3C(F)F)nc1-2)C(N)=O (configuration not stated) + C=CC(=O)N1CCN(c2nc(OCC3CCCN3C)nc3c(F)c(-c4nc(N)cc(C)c4C(F)(F)F)c(Cl)cc23)C(C)C1,4.13%
3,C[C@@H](NC(=O)c1ncnc(N)c1Cl)c1ncc(C(=O)Nc2cc(C(F)(F)F)c(Cl)cn2)s1 + C=CC(=O)N1CCN(c2nc(OCC3CCCN3C)nc3c(F)c(-c4nc(N)cc(C)c4C(F)(F)F)c(Cl)cc23)C(C)C1,14.6%
4,O=C(c1ccc(F)c(F)c1Nc1ccc(I)cc1F)N1CC(O)([C@@H]2CCCCN2)C1 + C=CC(=O)N1CCN(c2nc(OCC3CCCN3C)nc3c(F)c(-c4nc(N)cc(C)c4C(F)(F)F)c(Cl)cc23)C(C)C1,2.8%

# Same assay, conditions: second compound 0.01 µM; first compound 3.16 µM; stronger effect = lower value
row,Compound,"viability, T/C"
1,CC(C)NCC(C(=O)N1CCN(c2ncnc3c2C(C)CC3O)CC1)c1ccc(Cl)cc1 (configuration not stated) + C=CC(=O)N1CCN(c2nc(OCC3CCCN3C)nc3c(F)c(-c4nc(N)cc(C)c4C(F)(F)F)c(Cl)cc23)C(C)C1,9.79%
2,CC(Nc1ccc2c(c1)OCCn1cc(N3C(=O)OCC3C(F)F)nc1-2)C(N)=O (configuration not stated) + C=CC(=O)N1CCN(c2nc(OCC3CCCN3C)nc3c(F)c(-c4nc(N)cc(C)c4C(F)(F)F)c(Cl)cc23)C(C)C1,2.86%
3,C[C@@H](NC(=O)c1ncnc(N)c1Cl)c1ncc(C(=O)Nc2cc(C(F)(F)F)c(Cl)cn2)s1 + C=CC(=O)N1CCN(c2nc(OCC3CCCN3C)nc3c(F)c(-c4nc(N)cc(C)c4C(F)(F)F)c(Cl)cc23)C(C)C1,20%

# Same assay, conditions: second compound 0.01 µM; first compound 10 µM; stronger effect = lower value
row,Compound,"viability, T/C"
1,CC(C)NCC(C(=O)N1CCN(c2ncnc3c2C(C)CC3O)CC1)c1ccc(Cl)cc1 (configuration not stated) + C=CC(=O)N1CCN(c2nc(OCC3CCCN3C)nc3c(F)c(-c4nc(N)cc(C)c4C(F)(F)F)c(Cl)cc23)C(C)C1,5.61%
2,CC(Nc1ccc2c(c1)OCCn1cc(N3C(=O)OCC3C(F)F)nc1-2)C(N)=O (configuration not stated) + C=CC(=O)N1CCN(c2nc(OCC3CCCN3C)nc3c(F)c(-c4nc(N)cc(C)c4C(F)(F)F)c(Cl)cc23)C(C)C1,1.6%
3,C[C@@H](NC(=O)c1ncnc(N)c1Cl)c1ncc(C(=O)Nc2cc(C(F)(F)F)c(Cl)cn2)s1 + C=CC(=O)N1CCN(c2nc(OCC3CCCN3C)nc3c(F)c(-c4nc(N)cc(C)c4C(F)(F)F)c(Cl)cc23)C(C)C1,14%

# Same assay, conditions: second compound 0.0316 µM; first compound 0.000316 µM; stronger effect = lower value
row,Compound,"viability, T/C"
1,CC(C)n1nc(-c2ccc3oc(N)nc3c2)c2c(N)ncnc21 + C=CC(=O)N1CCN(c2nc(OCC3CCCN3C)nc3c(F)c(-c4nc(N)cc(C)c4C(F)(F)F)c(Cl)cc23)C(C)C1,10.9%

# Same assay, conditions: second compound 0.0316 µM; first compound 0.001 µM; stronger effect = lower value
row,Compound,"viability, T/C"
1,CC(C)n1nc(-c2ccc3oc(N)nc3c2)c2c(N)ncnc21 + C=CC(=O)N1CCN(c2nc(OCC3CCCN3C)nc3c(F)c(-c4nc(N)cc(C)c4C(F)(F)F)c(Cl)cc23)C(C)C1,9.65%

# Same assay, conditions: second compound 0.0316 µM; first compound 0.00316 µM; stronger effect = lower value
row,Compound,"viability, T/C"
1,CC(C)n1nc(-c2ccc3oc(N)nc3c2)c2c(N)ncnc21 + C=CC(=O)N1CCN(c2nc(OCC3CCCN3C)nc3c(F)c(-c4nc(N)cc(C)c4C(F)(F)F)c(Cl)cc23)C(C)C1,8.36%
2,O=C(c1ccc(F)c(F)c1Nc1ccc(I)cc1F)N1CC(O)([C@@H]2CCCCN2)C1 + C=CC(=O)N1CCN(c2nc(OCC3CCCN3C)nc3c(F)c(-c4nc(N)cc(C)c4C(F)(F)F)c(Cl)cc23)C(C)C1,10.5%

# Same assay, conditions: second compound 0.0316 µM; first compound 0.01 µM; stronger effect = lower value
row,Compound,"viability, T/C"
1,CC(C)n1nc(-c2ccc3oc(N)nc3c2)c2c(N)ncnc21 + C=CC(=O)N1CCN(c2nc(OCC3CCCN3C)nc3c(F)c(-c4nc(N)cc(C)c4C(F)(F)F)c(Cl)cc23)C(C)C1,8%
2,O=C(c1ccc(F)c(F)c1Nc1ccc(I)cc1F)N1CC(O)([C@@H]2CCCCN2)C1 + C=CC(=O)N1CCN(c2nc(OCC3CCCN3C)nc3c(F)c(-c4nc(N)cc(C)c4C(F)(F)F)c(Cl)cc23)C(C)C1,8.28%

# Same assay, conditions: second compound 0.0316 µM; first compound 0.0316 µM; stronger effect = lower value
row,Compound,"viability, T/C"
1,CC(C)NCC(C(=O)N1CCN(c2ncnc3c2C(C)CC3O)CC1)c1ccc(Cl)cc1 (configuration not stated) + C=CC(=O)N1CCN(c2nc(OCC3CCCN3C)nc3c(F)c(-c4nc(N)cc(C)c4C(F)(F)F)c(Cl)cc23)C(C)C1,11.2%
2,CC(C)n1nc(-c2ccc3oc(N)nc3c2)c2c(N)ncnc21 + C=CC(=O)N1CCN(c2nc(OCC3CCCN3C)nc3c(F)c(-c4nc(N)cc(C)c4C(F)(F)F)c(Cl)cc23)C(C)C1,8.61%
3,CC(Nc1ccc2c(c1)OCCn1cc(N3C(=O)OCC3C(F)F)nc1-2)C(N)=O (configuration not stated) + C=CC(=O)N1CCN(c2nc(OCC3CCCN3C)nc3c(F)c(-c4nc(N)cc(C)c4C(F)(F)F)c(Cl)cc23)C(C)C1,8.44%
4,C[C@@H](NC(=O)c1ncnc(N)c1Cl)c1ncc(C(=O)Nc2cc(C(F)(F)F)c(Cl)cn2)s1 + C=CC(=O)N1CCN(c2nc(OCC3CCCN3C)nc3c(F)c(-c4nc(N)cc(C)c4C(F)(F)F)c(Cl)cc23)C(C)C1,12%
5,O=C(c1ccc(F)c(F)c1Nc1ccc(I)cc1F)N1CC(O)([C@@H]2CCCCN2)C1 + C=CC(=O)N1CCN(c2nc(OCC3CCCN3C)nc3c(F)c(-c4nc(N)cc(C)c4C(F)(F)F)c(Cl)cc23)C(C)C1,7.31%

# Same assay, conditions: second compound 0.0316 µM; first compound 0.1 µM; stronger effect = lower value
row,Compound,"viability, T/C"
1,CC(C)NCC(C(=O)N1CCN(c2ncnc3c2C(C)CC3O)CC1)c1ccc(Cl)cc1 (configuration not stated) + C=CC(=O)N1CCN(c2nc(OCC3CCCN3C)nc3c(F)c(-c4nc(N)cc(C)c4C(F)(F)F)c(Cl)cc23)C(C)C1,12.1%
2,CC(C)n1nc(-c2ccc3oc(N)nc3c2)c2c(N)ncnc21 + C=CC(=O)N1CCN(c2nc(OCC3CCCN3C)nc3c(F)c(-c4nc(N)cc(C)c4C(F)(F)F)c(Cl)cc23)C(C)C1,4.33%
3,CC(Nc1ccc2c(c1)OCCn1cc(N3C(=O)OCC3C(F)F)nc1-2)C(N)=O (configuration not stated) + C=CC(=O)N1CCN(c2nc(OCC3CCCN3C)nc3c(F)c(-c4nc(N)cc(C)c4C(F)(F)F)c(Cl)cc23)C(C)C1,6.97%
4,C[C@@H](NC(=O)c1ncnc(N)c1Cl)c1ncc(C(=O)Nc2cc(C(F)(F)F)c(Cl)cn2)s1 + C=CC(=O)N1CCN(c2nc(OCC3CCCN3C)nc3c(F)c(-c4nc(N)cc(C)c4C(F)(F)F)c(Cl)cc23)C(C)C1,11.7%
